The text below walks through data of patent US20090232915A1, “MIXTURES WITH A COLLAGEN SYNTHESIS BOOSTING ACTION” (SYMRISE GmbH & Co., KG, priority 2008, published 2009).

Several values for one entry are separate records, joined by “and”; a condition that tells them apart may be missing. Identical values can stand only once.

The assay concerns normal human dermal fibroblasts (NHDF). Briefly: Collagen synthesis boosting activity, Sirius Red staining of collagen in fibroblast monolayer (96 well). The format is cell-based. As to conditions: 48 h incubation. Here is the method:
Method for determining the collagen synthesis boosting activity of selected substances of natural or synthetic origin.
Fibroblasts are responsible for collagen synthesis in the dermis layer of the skin. The test system involves culturing normal human dermal fibroblasts (NHDF) in a “monolayer” culture in 96 well MTPs, incubating them over a defined period with test substances and then determining the increase in collagen qualitatively by a staining method.
The principle of the assay is based on histological, specific staining of the soluble collagen (predominantly type I and III collagen) with the assistance of the dye Sirius Red (Direct Red 80). Sirius Red is an anionic dye having sulfonic acid groups attached to its side chains. These sulfonic acid groups react with the side chain groups of the amino acids (proline, hydroxyproline, lysine and hydroxylysine) predominantly occurring in collagen, it being necessary for an intact collagen structure to be present.
The model used for the assay design is the procedure described in B. J. Walsh et al., Analytical Biochemistry 203, 187-190 (1992) for the quantitative determination of collagen on the 96 well scale. […]
After a 24 h adaptation phase for the NHDF, the cells are incubated (37° C., 5% CO2) for 48 h with the incubation solution and corresponding control solutions (solvent and blank). […] The absorption of the resultant dye solution can be determined photometrically at 540 nm.
Thanks to the linear relationship between collagen content and the OD values arising from staining, the increase in OD is determined for qualitative assessment of the collagen synthesis boosting effect. To this end, the mean and standard deviations of the controls and the test samples are calculated and then a background or blank correction is made. […]
The synergy index (SI) values of the ternary mixtures according to the invention were calculated according to Kull (literature: F. C. Kull et al, Applied Microbiology vol. 9, p. 538-541 (1961); D. C. Steinberg, Cosmetics & Toiletries vol. 115(11), 59-62 (2000) by means of the following equation. […]

The mark [1] stands for this setting: usage concentration 1.020 mg/ml.

Regarding `O=C1O[C@H]([C@@H](O)CO)C([O-])=C1OP(=O)([O-])[O-].O=C1O[C@H]([C@@H](O)CO)C([O-])=C1OP(=O)([O-])[O-].[Mg+2].[Mg+2].[Mg+2]` [Magnesium ascorbyl phosphate (Bio172), Magnesium ascorbyl phosphate], the “Collagen synthesis boost [%], relative to untreated control” value (usage concentration 0.362 mg/ml) is 66.97% and 67.44%.

On to `O=C1O[C@H]([C@@H](O)CO)C([O-])=C1OP(=O)([O-])[O-].O=C1O[C@H]([C@@H](O)CO)C([O-])=C1OP(=O)([O-])[O-].[Mg+2].[Mg+2].[Mg+2]` [Magnesium ascorbyl phosphate (Bio1300/1), Magnesium ascorbyl phosphate], for which, under setting [1], the “Collagen synthesis boost [%], relative to untreated control” value is 141.13%. For the molecule `O=C1O[C@H]([C@@H](O)CO)C([O-])=C1OP(=O)([O-])[O-].[Na+].[Na+].[Na+]` [Sodium ascorbyl phosphate (Bio1586), Sodium ascorbyl phosphate], under setting [1], the “Collagen synthesis boost [%], relative to untreated control” value worked out at 144.57%.
